Laboratory results from US6413953B1, “Pt(IV) antitumor agent” (AnorMED Inc., priority 1999, dated 2002).
Like-named read-outs stand apart in the source and are kept apart here.

What was measured:
[1] = Aqueous solubility at ambient conditions; type: physicochemical; details: for Aqueous Solubility / Ratio to Solubility of bis-butyrato-ammine-(cyclohexylamine)dichloro platinum (IV) / Ratio to Solubility of cis-ammine(2-methylpyridine)Dichloroplatinum (II) / Ratio to Solubility of cisplatin: ambient conditions
[2] = test system: A2780; assay: Cell proliferation IC50, human cancer cell lines in culture; type: cell-based; details: A2780 cell line; for (IC50-Pt(IV)/IC50-Pt(II)): vs cis-amminedichloro(2-methylpyridine)platinum(II); for IC50: read-out: IC50 (50% decrease in cell proliferation)
Method: (§1) Compounds were tested against human cancer cell lines grown in cell culture according to established procedures (described by Holford, et al., British J. Cancer 1998 77(3) 366-373).

[3] = test system: 41MR; assay: as above; type: cell-based; details: for (IC50-Pt(IV)/IC50-Pt(II)): 41MR cell line, vs cis-amminedichloro(2-methylpyridine)platinum(II); for resistance factor: 41MR vs 41M, in brackets; for IC50: read-out: IC50 (50% decrease in cell proliferation), 41MR cisplatin-resistant cell line
Method: as §1

[4] = test system: CH1; assay: as above; type: cell-based; details: CH1 cell line; for (IC50-Pt(IV)/IC50-Pt(II)): vs cis-amminedichloro(2-methylpyridine)platinum(II); for IC50: read-out: IC50 (50% decrease in cell proliferation)
Method: as §1

[5] = test system: CH1R; assay: as above; type: cell-based; details: for (IC50-Pt(IV)/IC50-Pt(II)): CH1R cell line, vs cis-amminedichloro(2-methylpyridine)platinum(II); for resistance factor: CH1R vs CH1, in brackets; for IC50: read-out: IC50 (50% decrease in cell proliferation), CH1R cisplatin-resistant cell line
Method: as §1

[6] = test system: 41M; assay: as above; type: cell-based; details: 41M cell line; for (IC50-Pt(IV)/IC50-Pt(II)): vs cis-amminedichloro(2-methylpyridine)platinum(II); for IC50: read-out: IC50 (50% decrease in cell proliferation)
Method: as §1

[7] = test system: 2780R; assay: as above; type: cell-based; details: for resistance factor: 2780R vs A2780, in brackets; for (IC50-Pt(IV)/IC50-Pt(II)): A2780R cell line, vs cis-amminedichloro(2-methylpyridine)platinum(II); for IC50: read-out: IC50 (50% decrease in cell proliferation), 2780R cisplatin-resistant cell line
Method: as §1

[8] = test system: CH1 tumor containing xenografts; assay: In vivo growth delay in CH1 tumor xenografts; details: administered at maximum tolerated dose
Source text: This is in contrast to the growth delay of 0.6 days, achieved with compound E (FIG. 1).

[9] = background statement; cited from earlier work
[10] = solubility ratio to cis-amminedichloro(2-methylpyridine)platinum(II)

Compound	Aqueous Solubility [1]	Ratio to Solubility of bis-butyrato-ammine-(cyclohexylamine)dichloro platinum (IV) [1]	Ratio to Solubility of cis-ammine(2-methylpyridine)Dichloroplatinum (II) [1]	Ratio to Solubility of cisplatin [1]	(IC50-Pt(IV)/IC50-Pt(II)) [2]	IC50 [2]	(IC50-Pt(IV)/IC50-Pt(II)) [3]	resistance factor [3]	IC50 [3]	(IC50-Pt(IV)/IC50-Pt(II)) [4]	IC50 [4]	(IC50-Pt(IV)/IC50-Pt(II)) [5]	resistance factor [5]	IC50 [5]	(IC50-Pt(IV)/IC50-Pt(II)) [6]	IC50 [6]	resistance factor [7]	(IC50-Pt(IV)/IC50-Pt(II)) [7]	IC50 [7]	growth delay [8]	other results
Cc1cccc[n+]1[Pt-2]([NH3+])([OH])([OH])([Cl])[Cl] [Compound B]	˜5 mg/ml	25	7.1	5	1.8	4.5 µM	3.2	(1.9)	19 µM	1.5	3.4 µM	3.5	(2.2)	7.4 µM	1.8	10 µM	(8)	3.0	36 µM	–	(SolPt(IV)/SolPt(II)) [1, 10]: 7.1
CC(=O)[O][Pt]([OH])([Cl])[O]C(C)=O.Cc1ccccn1.N [Compound C]	20 mg/mL	100	28.6	20	3.4	8.6 µM	4.3	(0.96)	26 µM	3.9	8.6 µM	8.1	(1.8)	17 µM	4.8	27 µM	(5.2)	3.8	45 µM	–	(SolPt(IV)/SolPt(II)) [1, 10]: 28.6
CC(=O)[O][Pt]([Cl])([O]C(C)=O)[O]C(C)=O.Cc1ccccn1.N [Compound D]	80 mg/mL	–	–	–	–	47 µM	–	–	> 100 µM	–	46 µM	–	(1.9)	88 µM	–	> 100 µM	–	–	> 100 µM	–	–
CC(=O)[O][Pt]([OH])([Cl])[O]C(C)=O.Cc1ccccn1.N [Compound E]	15 mg/mL	75	21.4	15	4.2	10.5 µM	13	(1)	78 µM	8.2	18 µM	21.9	(2.6)	46 µM	13.9	78 µM	(5.9)	5.2	62 µM	0.6 days	(SolPt(IV)/SolPt(II)) [1]: 21.4
CC(=O)[O][Pt]([NH2])([Cl])([Cl])([NH]C1CCCCC1)[O]C(C)=O [Compound F, bis-acetatoammine(cyclohexylamine)dichloroplatinum(IV), reference compound]	<1 mg/mL	<5	<1.4	<1	–	0.4 µM	–	(1.2)	0.6 µM	–	–	–	(4)	0.4 µM	–	0.5 µM	(4.6)	–	1.84 µM	–	–
CCCC(=O)[O][Pt]([NH2])([Cl])([Cl])([NH]C1CCCCC1)[O]C(=O)CCC [Compound G, bis-butyratoammine(cyclohexylamine)dichloroplatinum(IV), reference compound]	–	–	–	–	–	–	–	(0.67)	0.048 µM	–	0.0066 µM	–	(3.7)	0.024 µM	–	0.072 µM	–	–	–	–	–
[NH2][Pt]1([NH2])[O]C(=O)C2(CCC2)C(=O)[O]1 [carboplatin, diammine[1,1-cyclobutanedicarboxylato (2-)]-O,O′-platinum(II), reference compound]	14 mg/mL	70	20	14	–	1.8 µM	–	(2.7)	8.8 µM	–	1.3 µM	–	(4.5)	6 µM	–	3.3 µM	(14.4)	–	25.9 µM	–	Aqueous Solubility [9]: 14 mg/mL
Cc1ccccn1.N.[Cl-].[Cl-].[Pt+2] [cis-ammine(2-methylpyridine)dichloroplatinum(II), reference compound]	0.7 mg/mL	3.5	1	0.7	–	2.5 µM	–	(1.1)	6 µM	–	2.2 µM	–	(1)	2.1 µM	–	5.6 µM	(4.8)	–	12 µM	–	–
N.N.[Cl][Pt][Cl] [cisplatin, [PtCl2(NH3)2], reference compound]	–	–	–	–	–	0.33 µM	–	(4.6)	1.2 µM	–	0.11 µM	–	(6.5)	0.71 µM	–	0.26 µM	(15.7)	–	5.2 µM	34 days	–
ammine(chloro)trihydroxo(2-methylpyridine)platinum(IV) [Compound A]	–	–	–	–	3.8	9.5 µM	7.5	(1.8)	45 µM	2.7	6 µM	5.7	(2)	12 µM	4.5	25 µM	(4.3)	3.4	41 µM	32.8 days	–
